Results as given in patent publication US20220281848A1, “PYRAZOLE-SUBSTITUTED PYRROLIDINONES AS HERBICIDES” (FMC Corporation, priority 2019, published 2022).

How the values were obtained:
Type in all cases: in vivo
[1] = test system: redroot pigweed (Amaranthus retroflexus, AMARE); test: Test A pre-emergence, redroot pigweed; details: after 13 d
How it was run: (§1)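 Each compound is applied pre-emergence at 15.625, 62.5 or 250 g/ha, one day after seeds are sown in standard soil. Plants are then grown in a glasshouse at 24/16° C. with 14 h light and 65% humidity, and injury is scored 0–100 at 13 d.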

[2] = test system: velvetleaf (Abutilon theophrasti, ABUTH); test: Test A pre-emergence, velvetleaf; details: after 13 d
How it was run: as §1

wheat = test: Test D pre-emergence, wheat seed treated with a herbicide safener; details: 100=total damage, 0=no damage
Method: (§2) A formulation containing 50 g/L of the test chemical was prepared by dissolving the active ingredient in a mixture of organic solvents and emulsifier, details of which are provided in the table. This formulation was then mixed with a small, variable amount of acetone to aid dissolution, before addition of a 0.2% v/v aqueous solution of an adjuvant, as the aqueous diluent, to form an aqueous spray solution which contains a predetermined concentration of the active ingredient.
(§3) This aqueous spray solution was then sprayed onto plants including maize and wheat that had been seed treated with a herbicide safener, after one day's cultivation (for pre-emergence) or after about 12 days' cultivation (for post-emergence). The plants were grown from seeds sown in standard soil, placed in a glasshouse under controlled conditions (at 24/18° C. or 20/16° C., day/night; 16 h light; 65% humidity). After spray application the plants were then grown in a glasshouse under the same conditions and watered twice daily. After 15 d for post-emergence and 20 DAA for pre-emergence the test was evaluated (100=total damage to plant; 0=no damage to plant).

plants = test: Test D post-emergence, other plants of Tables D2 and D4; details: "Cereals" Postemergent, evaluated after 15 d
Method: as §2, §3

CN1CC(c2cc(C(F)(F)F)n(C)n2)C(C(=O)Nc2ccc(F)c(F)c2F)C1=O (racemic) [Compound 17]
damage to plant (100=total damage; 0=no damage) AMARE ([1]; Pre-Emergence at 15.625 g/ha): 0 | damage to plant (100=total damage; 0=no damage) AMARE ([1]; Pre-Emergence at 62.5 g/ha): 10 | damage to plant (100=total damage; 0=no damage) AMARE ([1]; Pre-Emergence at 250 g/ha): 20 | damage to plant (100=total damage; 0=no damage) ABUTH ([2]; Pre-Emergence at 15.625 g/ha): 0 | damage to plant (100=total damage; 0=no damage) ABUTH ([2]; Pre-Emergence at 62.5 g/ha): 0 | damage to plant (100=total damage; 0=no damage) ABUTH ([2]; Pre-Emergence at 250 g/ha): 10 | damage to plant, TRZAW (wheat; rate 15, 20 DAA): 0 | damage to plant, TRZAW (wheat; rate 30, 20 DAA): 0 | damage to plant, TRZAW (wheat; rate 60, 20 DAA): 0 | damage to plant, TRZAW (wheat; rate 130, 20 DAA): 50 | damage to plant, TRZAW (wheat; rate 250, 20 DAA): 60 | damage to plant, TRZAW (wheat; rate 500, 20 DAA): 90 | ALOMY damage rating (100=total damage to plant; 0=no damage to plant) (plants; Rates 130): 30 | ALOMY damage rating (100=total damage to plant; 0=no damage to plant) (plants; Rates 250): 50 | ALOMY damage rating (100=total damage to plant; 0=no damage to plant) (plants; Rates 500): 70 | AVEFA damage rating (100=total damage to plant; 0=no damage to plant) (plants; Rates 130): 0 | AVEFA damage rating (100=total damage to plant; 0=no damage to plant) (plants; Rates 250): 30 | AVEFA damage rating (100=total damage to plant; 0=no damage to plant) (plants; Rates 500): 60 | BEAVA damage rating (100=total damage to plant; 0=no damage to plant) (plants; Rates 130): 10 | BEAVA damage rating (100=total damage to plant; 0=no damage to plant) (plants; Rates 250): 20 | BEAVA damage rating (100=total damage to plant; 0=no damage to plant) (plants; Rates 500): 20 | BROTE damage rating (100=total damage to plant; 0=no damage to plant) (plants; Rates 130): 0 | BROTE damage rating (100=total damage to plant; 0=no damage to plant) (plants; Rates 250): 10 | BROTE damage rating (100=total damage to plant; 0=no damage to plant) (plants; Rates 500): 20 | BRSNN damage rating (100=total damage to plant; 0=no damage to plant) (plants; Rates 130): 0 | BRSNN damage rating (100=total damage to plant; 0=no damage to plant) (plants; Rates 250): 20 | BRSNN damage rating (100=total damage to plant; 0=no damage to plant) (plants; Rates 500): 20 | CHEAL damage rating (100=total damage to plant; 0=no damage to plant) (plants; Rates 130): 0 | CHEAL damage rating (100=total damage to plant; 0=no damage to plant) (plants; Rates 250): 60 | CHEAL damage rating (100=total damage to plant; 0=no damage to plant) (plants; Rates 500): 50 | GALAP damage rating (100=total damage to plant; 0=no damage to plant) (plants; Rates 130): 0 | GALAP damage rating (100=total damage to plant; 0=no damage to plant) (plants; Rates 250): 40 | GALAP damage rating (100=total damage to plant; 0=no damage to plant) (plants; Rates 500): 30 | HORVW damage rating (100=total damage to plant; 0=no damage to plant) (plants; Rates 130): 10 | HORVW damage rating (100=total damage to plant; 0=no damage to plant) (plants; Rates 250): 40 | HORVW damage rating (100=total damage to plant; 0=no damage to plant) (plants; Rates 500): 80 | KCHSC damage rating (100=total damage to plant; 0=no damage to plant) (plants; Rates 130): 0 | KCHSC damage rating (100=total damage to plant; 0=no damage to plant) (plants; Rates 250): 0 | KCHSC damage rating (100=total damage to plant; 0=no damage to plant) (plants; Rates 500): 20 | LOLPE damage rating (100=total damage to plant; 0=no damage to plant) (plants; Rates 130): 0 | LOLPE damage rating (100=total damage to plant; 0=no damage to plant) (plants; Rates 250): 30 | LOLPE damage rating (100=total damage to plant; 0=no damage to plant) (plants; Rates 500): 60 | POAAN damage rating (100=total damage to plant; 0=no damage to plant) (plants; Rates 130): 60 | POAAN damage rating (100=total damage to plant; 0=no damage to plant) (plants; Rates 250): 80 | POAAN damage rating (100=total damage to plant; 0=no damage to plant) (plants; Rates 500): 90 | POLCO damage rating (100=total damage to plant; 0=no damage to plant) (plants; Rates 130): 0 | POLCO damage rating (100=total damage to plant; 0=no damage to plant) (plants; Rates 250): 0 | POLCO damage rating (100=total damage to plant; 0=no damage to plant) (plants; Rates 500): 10 | SINAR damage rating (100=total damage to plant; 0=no damage to plant) (plants; SINAR, Rates 500): 60
